Source: article PMC8359193, “Summary of reference chemicals evaluated by the fish short‐term reproduction assay, OECD TG229, using Japanese Medaka, Oryzias latipes” (Journal of Applied Toxicology, 2021)

Test system: Japanese medaka (Oryzias latipes)
Experiment: Fish short-term reproduction assay (FSTRA, OECD TG229), 21-day flow-through exposure
Conditions: for LOEC on female SSC (papillary process formation on anal fin): measured conc.; for GSI Male / HSI Male / Length Male / Weight Male / GSI Female / HSI Female / Length Female / Weight Female: at completion of exposure; for Fertility rate (%) / Mortality (%) Female / Mortality (%) Male / Number of fertilized eggs / Number of total eggs / SSC Female / SSC Male / VTG (ng/mg of liver) Female / VTG (ng/mg of liver) Male: 21 days; for effect on fecundity (number of total eggs), in words: within the test concentrations
Procedure, shortened: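 Run to OECD TG229: mature NIES-R medaka pairs (3♂/3♀ per vessel, 4 vessels per treatment plus dilution water control) were dosed by continuous flow-through for 21 days. Test concentrations were spaced 2- to 5-fold. Daily spawned eggs were counted under the microscope for fertilized versus unfertilized.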

C#C[C@]1(O)CC[C@H]2[C@@H]3CCC4=CC(=O)CC[C@@H]4[C@H]3CC[C@@]21CC [LNG, Levonorgestrel]
LOEC on female SSC (papillary process formation on anal fin) (21-day exposure): 42.2 ng/L
concentration at which female hepatic VTG was significantly decreased (highest concentration, 21-day exposure): 226 ng/L
GSI Male (male, measured conc. 7.3 ng/L): 0.82%
HSI Male (male, measured conc. 7.3 ng/L): 2.0%
Length Male (male, measured conc. 7.3 ng/L): 38.4 mm
Weight Male (male, measured conc. 7.3 ng/L): 610 mg
GSI Male (male, measured conc. 42.2 ng/L): 0.89%
HSI Male (male, measured conc. 42.2 ng/L): 2.2%
Length Male (male, measured conc. 42.2 ng/L): 38.8 mm
Weight Male (male, measured conc. 42.2 ng/L): 691 mg
GSI Male (male, measured conc. 226 ng/L): 0.76%
HSI Male (male, measured conc. 226 ng/L): 2.1%
Length Male (male, measured conc. 226 ng/L): 38.3 mm
Weight Male (male, measured conc. 226 ng/L): 610 mg
Fertility rate (%) (measured conc. 7.3 ng/L): 87%
Mortality (%) Female (measured conc. 7.3 ng/L): 0%
Mortality (%) Male (measured conc. 7.3 ng/L): 0%
Number of fertilized eggs (measured conc. 7.3 ng/L): 25
Number of total eggs (measured conc. 7.3 ng/L): 29 ± 5.8 /female/day
SSC Female (measured conc. 7.3 ng/L): 0 ± 0
SSC Male (measured conc. 7.3 ng/L): 112 ± 4.5
VTG (ng/mg of liver) Female (measured conc. 7.3 ng/L): 2,370 ± 207 ng/mg of liver
VTG (ng/mg of liver) Male (measured conc. 7.3 ng/L): 2.8 ± 4.1 ng/mg of liver
Fertility rate (%) (measured conc. 42.2 ng/L): 82%
Mortality (%) Female (measured conc. 42.2 ng/L): 8%
Mortality (%) Male (measured conc. 42.2 ng/L): 0%
Number of fertilized eggs (measured conc. 42.2 ng/L): 17
Number of total eggs (measured conc. 42.2 ng/L): 21 ± 3.9 /female/day
SSC Female (measured conc. 42.2 ng/L): 44 ± 10
SSC Male (measured conc. 42.2 ng/L): 121 ± 8.6
VTG (ng/mg of liver) Female (measured conc. 42.2 ng/L): 2,350 ± 673 ng/mg of liver
VTG (ng/mg of liver) Male (measured conc. 42.2 ng/L): 0.8 ± 0.3 ng/mg of liver
Fertility rate (%) (measured conc. 226 ng/L): 82%
Mortality (%) Female (measured conc. 226 ng/L): 0%
Mortality (%) Male (measured conc. 226 ng/L): 0%
Number of fertilized eggs (measured conc. 226 ng/L): 5.1
Number of total eggs (measured conc. 226 ng/L): 5.9 ± 5.2 /female/day
SSC Female (measured conc. 226 ng/L): 83 ± 5.4
SSC Male (measured conc. 226 ng/L): 116 ± 10
VTG (ng/mg of liver) Female (measured conc. 226 ng/L): 1,120 ± 561 ng/mg of liver
VTG (ng/mg of liver) Male (measured conc. 226 ng/L): 0.6 ± 0.1 ng/mg of liver
effect on fecundity (number of total eggs), in words (21-day exposure): significant difference from the control

C[C@]12C=CC3=C4CCC(=O)C=C4CC[C@H]3[C@@H]1CC[C@@H]2O [TRB, 17β‐Trenbolone]
LOEC on female SSC (papillary process formation on anal fin) (21-day exposure): 26.8 ng/L
Fertility rate (%) (measured conc. 8.03 ng/L): 95%
Mortality (%) Female (measured conc. 8.03 ng/L): 0%
Mortality (%) Male (measured conc. 8.03 ng/L): 0%
Number of fertilized eggs (measured conc. 8.03 ng/L): 26
Number of total eggs (measured conc. 8.03 ng/L): 27 ± 3.5 /female/day
SSC Female (measured conc. 8.03 ng/L): 0 ± 0
SSC Male (measured conc. 8.03 ng/L): 86 ± 3.9
VTG (ng/mg of liver) Female (measured conc. 8.03 ng/L): 736 ± 147 ng/mg of liver
VTG (ng/mg of liver) Male (measured conc. 8.03 ng/L): 3.7 ± 3.2 ng/mg of liver
GSI Female (measured conc. 8.03 ng/L): 9.7%
GSI Male (measured conc. 8.03 ng/L): 1.04%
HSI Female (measured conc. 8.03 ng/L): 5.4%
HSI Male (measured conc. 8.03 ng/L): 1.8%
Length Female (measured conc. 8.03 ng/L): 36.4 mm
Length Male (measured conc. 8.03 ng/L): 36.7 mm
Weight Female (measured conc. 8.03 ng/L): 573 mg
Weight Male (measured conc. 8.03 ng/L): 502 mg
Fertility rate (%) (measured conc. 26.8 ng/L): 93%
Mortality (%) Female (measured conc. 26.8 ng/L): 0%
Mortality (%) Male (measured conc. 26.8 ng/L): 0%
Number of fertilized eggs (measured conc. 26.8 ng/L): 22
Number of total eggs (measured conc. 26.8 ng/L): 24 ± 2.6 /female/day
SSC Female (measured conc. 26.8 ng/L): 6.6 ± 6.1
SSC Male (measured conc. 26.8 ng/L): 101 ± 17
VTG (ng/mg of liver) Female (measured conc. 26.8 ng/L): 696 ± 211 ng/mg of liver
VTG (ng/mg of liver) Male (measured conc. 26.8 ng/L): 6.5 ± 3.8 ng/mg of liver
GSI Female (measured conc. 26.8 ng/L): 11.3%
GSI Male (measured conc. 26.8 ng/L): 1.06%
HSI Female (measured conc. 26.8 ng/L): 5.5%
HSI Male (measured conc. 26.8 ng/L): 2.1%
Length Female (measured conc. 26.8 ng/L): 35.6 mm
Length Male (measured conc. 26.8 ng/L): 37.3 mm
Weight Female (measured conc. 26.8 ng/L): 515 mg
Weight Male (measured conc. 26.8 ng/L): 500 mg
Fertility rate (%) (measured conc. 84.6 ng/L): 90%
Mortality (%) Female (measured conc. 84.6 ng/L): 0%
Mortality (%) Male (measured conc. 84.6 ng/L): 0%
Number of fertilized eggs (measured conc. 84.6 ng/L): 9.1
Number of total eggs (measured conc. 84.6 ng/L): 10 ± 2.4 /female/day
SSC Female (measured conc. 84.6 ng/L): 48 ± 6.7
SSC Male (measured conc. 84.6 ng/L): 104 ± 8.1
VTG (ng/mg of liver) Female (measured conc. 84.6 ng/L): 658 ± 102 ng/mg of liver
VTG (ng/mg of liver) Male (measured conc. 84.6 ng/L): 4.9 ± 4.3 ng/mg of liver
GSI Female (measured conc. 84.6 ng/L): 16.1%
GSI Male (measured conc. 84.6 ng/L): 1.11%
HSI Female (measured conc. 84.6 ng/L): 3.7%
HSI Male (measured conc. 84.6 ng/L): 2.1%
Length Female (measured conc. 84.6 ng/L): 36.1 mm
Length Male (measured conc. 84.6 ng/L): 37.7 mm
Weight Female (measured conc. 84.6 ng/L): 625 mg
Weight Male (measured conc. 84.6 ng/L): 524 mg
Fertility rate (%) (measured conc. 291 ng/L): 74%
Mortality (%) Female (measured conc. 291 ng/L): 0%
Mortality (%) Male (measured conc. 291 ng/L): 0%
Number of fertilized eggs (measured conc. 291 ng/L): 0.9
Number of total eggs (measured conc. 291 ng/L): 1.2 ± 0.5 /female/day
SSC Female (measured conc. 291 ng/L): 76 ± 3.9
SSC Male (measured conc. 291 ng/L): 103 ± 8.4
VTG (ng/mg of liver) Female (measured conc. 291 ng/L): 641 ± 200 ng/mg of liver
VTG (ng/mg of liver) Male (measured conc. 291 ng/L): 4.5 ± 2.1 ng/mg of liver
GSI Female (measured conc. 291 ng/L): 18.8%
GSI Male (measured conc. 291 ng/L): 1.10%
HSI Female (measured conc. 291 ng/L): 3.4%
HSI Male (measured conc. 291 ng/L): 1.8%
Length Female (measured conc. 291 ng/L): 37.3 mm
Length Male (measured conc. 291 ng/L): 37.0 mm
Weight Female (measured conc. 291 ng/L): 691 mg
Weight Male (measured conc. 291 ng/L): 504 mg
effect on fecundity (number of total eggs), in words (21-day exposure): significantly reduced
